In patent publication US20200361895A1, “NOVEL SULFONAMIDE CARBOXAMIDE COMPOUNDS” (Inflazome Limited, priority 2017, published 2020) one finds IC50 data, which are given here for 19 molecules.

Molecules are shown by their SMILES. pIC50: −log10 of the molar value. Where a name gives a salt, the structure may show the parent alone. A value given as a limit tells only on which side of the number the result lay.

The target in assay [1] is T1, NLRP3 (Homo sapiens, UniProt Q96P20). As to the kind of experiment: THP-1 cells pyroptosis assay (LPS + nigericin, resazurin readout; THP IC50). It counts as cell-based. More on the design: Seed THP-1 cells (25,000 cells/well) containing 1.0 μg/ml LPS in 40 μl of RPMI medium; host or cells: THP-1 cells. The procedure, abridged: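 Human THP-1 cells, 25,000/well in serum-free RPMI with 1 μg/ml LPS, treated 3 hrs at 37° C with compound (8-point half-log, 10 μM top, 0.1% DMSO), then 5 μM nigericin 1 hr. Viability by 100 μM resazurin fluorescence after 1-2 hrs; IC50 by 4-parameter fit.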

For assay [2], the target named is T1, NLRP3. The assay can be described thus: Human whole blood IL1β release assay (LPS + nigericin, AlphaLisa IL-1β; HWB IC50). The arrangement: Human whole blood in Li-heparin tubes was obtained from healthy donors from a volunteer donor panel; from tissue; host or cells: human whole blood from healthy donors. It counts as cell-based. To be noted: IL-1β release. The method, then:
For systemic delivery, the ability to inhibit NLRP3 when the compounds are present within the bloodstream is of great importance. For this reason, the NLRP3 inhibitory activity of a number of compounds in human whole blood was investigated in accordance with the following protocol.
Human whole blood in Li-heparin tubes was obtained from healthy donors from a volunteer donor panel. • 1. Plate out 80 μl of whole blood containing 1 μg/ml of LPS in 96-well, clear bottom cell culture plate (Corning #3585) • 2. Add 10 μl compound (8 points half-log dilution with 10 μM top dose) or vehicle (DMSO 0.1% FAC) to the appropriate wells • 3. Incubate for 3 hrs at 37° C., 5% CO2 • 4. Add 10 μl nigericin (Sigma #N7143) (10 μM FAC) to all wells • 5. Incubate for 1 hr at 37° C., 5% CO2 • 6. At the end of the incubation period, spin plates at 300×g for 5 mins to pellet cells and remove 20 μl of supernatant and add to 96-well v-bottom plates for IL-1β analysis (note: these plates containing the supernatants can be stored at −80° C. to be analysed at a later date) • 7. IL-1β was measured according to the manufacturer protocol (Perkin Elmer-AlphaLisa IL-1 Kit AL220F-5000) • 8. IC50 data is fitted to a non-linear regression equation (log inhibitor vs response-variable slope 4-parameters)
(In general: Bead proximity is the source of the signal in Alpha formats.)

T1 sequence (Q96P20 whole entry): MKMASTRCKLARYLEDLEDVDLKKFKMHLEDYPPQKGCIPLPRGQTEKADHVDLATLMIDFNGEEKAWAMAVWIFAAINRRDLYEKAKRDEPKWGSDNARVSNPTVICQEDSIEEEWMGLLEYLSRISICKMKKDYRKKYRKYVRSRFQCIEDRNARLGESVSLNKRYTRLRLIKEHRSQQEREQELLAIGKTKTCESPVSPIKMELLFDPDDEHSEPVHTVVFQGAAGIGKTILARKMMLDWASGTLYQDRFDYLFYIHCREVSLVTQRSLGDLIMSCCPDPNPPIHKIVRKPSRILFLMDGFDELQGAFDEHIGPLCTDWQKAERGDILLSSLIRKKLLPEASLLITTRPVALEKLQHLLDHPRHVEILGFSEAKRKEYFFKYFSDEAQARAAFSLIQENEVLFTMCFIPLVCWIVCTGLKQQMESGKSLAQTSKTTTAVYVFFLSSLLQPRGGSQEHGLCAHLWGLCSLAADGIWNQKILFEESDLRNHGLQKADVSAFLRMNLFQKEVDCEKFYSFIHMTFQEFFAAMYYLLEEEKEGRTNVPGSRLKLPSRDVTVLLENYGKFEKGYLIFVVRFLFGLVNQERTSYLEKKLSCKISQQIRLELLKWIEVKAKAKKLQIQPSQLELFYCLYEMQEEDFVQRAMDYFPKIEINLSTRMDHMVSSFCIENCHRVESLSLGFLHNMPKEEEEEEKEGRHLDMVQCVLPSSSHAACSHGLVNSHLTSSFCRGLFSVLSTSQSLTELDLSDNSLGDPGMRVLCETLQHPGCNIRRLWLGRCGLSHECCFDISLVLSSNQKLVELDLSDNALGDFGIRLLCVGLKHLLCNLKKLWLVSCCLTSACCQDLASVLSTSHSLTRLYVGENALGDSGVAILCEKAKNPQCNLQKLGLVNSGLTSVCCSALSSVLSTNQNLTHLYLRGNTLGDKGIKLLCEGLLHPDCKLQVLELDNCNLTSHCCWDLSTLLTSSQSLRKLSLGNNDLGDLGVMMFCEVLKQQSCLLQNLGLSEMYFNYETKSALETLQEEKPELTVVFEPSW

As a reminder, the pIC50 is the IC50 on a negative log10 scale, so that one unit is a factor of ten. Regarding `COCCN(CCOC)C(=O)c1cc(S(=O)(=O)NC(=O)Nc2c(-c3ccnc(OC(C)C)c3)cc(F)cc2C(C)C)nn1C` [Example 166, 3-(N-((4-Fluoro-2-(2-isopropoxypyridin-4-yl)-6-isopropyl-phenyl)carbamoyl)sulfamoyl)-N,N-bis(2-methoxyethyl)-1-methyl-1H-pyrazole-5-carboxamide, sodium salt], the negative logarithm of the IC50 (pIC50) is at least 5.30 on NLRP3 [1] and at least 5.00 at NLRP3 [2].

In the case of `[2H]C([2H])([2H])Oc1cc(-c2ccc3c(c2NC(=O)NS(=O)(=O)c2ccn(C4CCC4)n2)CCO3)ccn1` [Example 280, 1-Cyclobutyl-N-((5-(2-(methoxy-d3)pyridin-4-yl)-2,3-dihydrobenzofuran-4-yl)carbamoyl)-1H-pyrazole-3-sulfonamide, sodium salt], the negative logarithm of the IC50 (pIC50) at NLRP3 [1] and on NLRP3 [2] was at least 6.30 in each case.

As to `COc1cc(-c2ccc3c(c2NC(=O)NS(=O)(=O)c2ccn(C4CCC4)n2)CCO3)c(F)cn1` [Example 281, 1-Cyclobutyl-N-((5-(5-fluoro-2-methoxypyridin-4-yl)-2,3-dihydrobenzofuran-4-yl)carbamoyl)-1H-pyrazole-3-sulfonamide, sodium salt], the pIC50 at NLRP3 [1] and at NLRP3 [2] was at least 6.30 throughout.

Turning to `COc1cc(-c2ccc3c(c2NC(=O)NS(=O)(=O)c2ccn(CCF)n2)CCC3)ccn1` [Example 249, 1-(2-Fluoroethyl)-N-((5-(2-methoxypyridin-4-yl)-2,3-dihydro-1H-inden-4-yl)carbamoyl)-1H-pyrazole-3-sulfonamide, sodium salt], the pIC50 at NLRP3 [1] and at NLRP3 [2] was at least 6.30 each time.

Take `O=C(Nc1c(-c2ccnc(OC(F)F)c2)ccc2c1CCO2)NS(=O)(=O)c1ccn(C2CCC2)n1` [Example 275, 1-Cyclobutyl-N-((5-(2-(difluoromethoxy)pyridin-4-yl)-2,3-dihydrobenzofuran-4-yl)carbamoyl)-1H-pyrazole-3-sulfonamide, sodium salt]: the pIC50 at NLRP3 [1] and on NLRP3 [2] was at least 6.30 in each case.

Turning to `O=C(Nc1c(-c2ccncc2)ccc2c1CCC2)NS(=O)(=O)c1ccn(C2CCC2)n1` [Example 304, 1-Cyclobutyl-N-((5-(pyridin-4-yl)-2,3-dihydro-1H-inden-4-yl)carbamoyl)-1H-pyrazole-3-sulfonamide], the pIC50 at NLRP3 [1] and at NLRP3 [2] was at least 6.30 each time.

In the case of `CC(C)n1cnc(S(=O)(=O)NC(=O)Nc2c(-c3ccnc(C#N)c3)ccc3c2CCC3)n1` [Example 228, N-((5-(2-Cyanopyridin-4-yl)-2,3-dihydro-1H-inden-4-yl)carbamoyl)-1-isopropyl-1H-1,2,4-triazole-3-sulfonamide, sodium salt], the pIC50 on NLRP3 [1] and on NLRP3 [2] was at least 6.30 each time.

Regarding `COc1cc(-c2ccc3c(c2NC(=O)NS(=O)(=O)c2ccn(C(C)(C)CN4CCCC4)n2)CCC3)ccn1` [Example 243, N-((5-(2-Methoxypyridin-4-yl)-2,3-dihydro-1H-inden-4-yl)carbamoyl)-1-(2-methyl-1-(pyrrolidin-1-yl)propan-2-yl)-1H-pyrazole-3-sulfonamide, sodium salt], the pIC50 at NLRP3 [1] and on NLRP3 [2] was at least 6.30 in each case.

In the case of `CC(C)n1ccc(S(=O)(=O)NC(=O)Nc2c(-c3ccnc(OCCO)c3)ccc3c2CCC3)n1` [Example 299, N-((5-(2-(2-Hydroxyethoxy)pyridin-4-yl)-2,3-dihydro-1H-inden-4-yl)carbamoyl)-1-isopropyl-1H-pyrazole-3-sulfonamide], the pIC50 on NLRP3 [1] and at NLRP3 [2] was at least 6.30 each time.

As for `COc1cc(-c2ccc3c(c2NC(=O)NS(=O)(=O)c2cn(C(C)C)nn2)CCC3)ccn1` [Example 234, 1-Isopropyl-N-((5-(2-methoxypyridin-4-yl)-2,3-dihydro-1H-inden-4-yl)carbamoyl)-1H-1,2,3-triazole-4-sulfonamide, sodium salt], the negative logarithm of the IC50 (pIC50) on NLRP3 [1] was at least 6.30; at NLRP3 [2] it was at least 6.00.

Regarding `CC(C)(C#N)n1ccc(S(=O)(=O)NC(=O)Nc2c(-c3ccnc(OC(F)F)c3)ccc3c2CCO3)n1` [Example 195, 1-(2-Cyanopropan-2-yl)-N-((5-(2-(difluoromethoxy)pyridin-4-yl)-2,3-dihydrobenzofuran-4-yl)carbamoyl)-1H-pyrazole-3-sulfonamide], the negative logarithm of the IC50 (pIC50) at NLRP3 [1] and on NLRP3 [2] was at least 6.30 throughout.

`COc1cc(-c2cc(F)cc(C(C)C)c2NC(=O)NS(=O)(=O)c2cc(N(C)C)cnn2)ccn1` [Example 119, 5-(Dimethylamino)-N-((4-fluoro-2-isopropyl-6-(2-methoxypyridin-4-yl)phenyl)carbamoyl) pyridazine-3-sulfonamide]: the pIC50 at NLRP3 [1] is at least 6.30; at NLRP3 [2] it was at least 5.30.

For `COc1cc(-c2ccc3c(c2NC(=O)NS(=O)(=O)c2ccc(CN(C)C)c(C4CC4)c2)CCC3)ccn1` [Example 313, 3-Cyclopropyl-4-((dimethylamino)methyl)-N-((5-(2-methoxypyridin-4-yl)-2,3-dihydro-1H-inden-4-yl)carbamoyl)benzenesulfonamide], the negative logarithm of the IC50 (pIC50) at NLRP3 [1] and at NLRP3 [2] was at least 6.30 in each case.

As to `CC(C)n1ccc(S(=O)(=O)NC(=O)Nc2c(-c3ccnc(N)c3)ccc3c2CCC3)n1` [Example 285, N-((5-(2-Aminopyridin-4-yl)-2,3-dihydro-1H-inden-4-yl)carbamoyl)-1-isopropyl-1H-pyrazole-3-sulfonamide], the pIC50 was at least 6.30 on NLRP3 [1] and at least 5.30 on NLRP3 [2].

On to `COCCN(CCOC)C(=O)c1cc(S(=O)(=O)NC(=O)Nc2c(-c3ccnc(OC)c3)ccc3c2CCC3)nn1C` [Example 167, N,N-Bis(2-methoxyethyl)-3-(N-((5-(2-methoxypyridin-4-yl)-2,3-dihydro-1H-inden-4-yl)carbamoyl)sulfamoyl)-1-methyl-1H-pyrazole-5-carboxamide, sodium salt], for which the pIC50 on NLRP3 [1] and at NLRP3 [2] was at least 6.30 in each case.

`CC(C)n1ncc(S(=O)(=O)NC(=O)Nc2c(-c3ccnc(C#N)c3)ccc3c2CCC3)n1` [Example 260, N-((5-(2-Cyanopyridin-4-yl)-2,3-dihydro-1H-inden-4-yl)carbamoyl)-2-isopropyl-2H-1,2,3-triazole-4-sulfonamide, sodium salt]: the pIC50 at NLRP3 [1] was at least 6.30; at NLRP3 [2], at least 5.30.

Consider `CN(C)CC(C)(C)n1ccc(S(=O)(=O)NC(=O)Nc2c(-c3cccnc3)ccc3c2CCC3)n1` [Example 203, 1-(1-(Dimethylamino)-2-methylpropan-2-yl)-N-((5-(pyridin-3-yl)-2,3-dihydro-1H-inden-4-yl)carbamoyl)-1H-pyrazole-3-sulfonamide], for which the negative-log IC50 (pIC50) at NLRP3 [1] and on NLRP3 [2] was at least 6.30 each time.

`COc1cc(-c2cc(F)c3c(c2NC(=O)NS(=O)(=O)c2ccn(C(C)(C)CN4CCC4)n2)CCC3)ccn1` [Example 173, 1-(1-(Azetidin-1-yl)-2-methylpropan-2-yl)-N-((7-fluoro-5-(2-methoxypyridin-4-yl)-2,3-dihydro-1H-inden-4-yl)carbamoyl)-1H-pyrazole-3-sulfonamide, sodium salt]: the negative-log IC50 (pIC50) on NLRP3 [1] and at NLRP3 [2] was at least 6.30 each time.

Consider `CN1CCC(N(C)S(=O)(=O)NC(=O)Nc2c(-c3ccnc(C#N)c3)ccc3c2CCC3)C1` (centres unmarked) [Example 317, 3-(N-Methyl-N-(1-methylpyrrolidin-3-yl)sulfamoyl)-1-(5-(2-cyanopyridin-4-yl)-2,3-dihydro-1H-inden-4-yl)urea], for which the pIC50 on NLRP3 [1] and at NLRP3 [2] was at least 6.30 each time.
